System: CT26 syngeneic mouse colon fibroblast carcinoma-derived subcutaneous tumor
Test: CT26 Study 2: mouse CT26 syngeneic tumor model, individual tumor volume
Assay type: in vivo
Conditions: Compound I-263a 7.5 mg/kg IV and anti-mPD-1 10 mg/kg IP, Day 0, 3, 7, 10, 14; 9 tumors/group
Description: CT26 Study 2: CT26 is a mouse colon fibroblast carcinoma cell line. CT26 mouse syngeneic tumor model was generated by subcutaneous inoculation with 0.2×10^6 CT-26 cells (cell suspension) in 10 weeks old female BALB/c mice (Vital River Laboratory Animal Technology Co., Ltd., Beijing, China) in the flank. When the mean tumor volume reached approximately 40 mm^3, the animals were randomized into one vehicle control and three treatment groups (n=9/group). Mice were then dosed with 20% HPbCD or Compound I-263a or anti-mouse PD-1 antibody over a 14-day period. Tumor growth and body weight were measured twice per week during the treatment and post-treatment periods, and mice were humanely euthanized once they had reached their humane endpoint.
Study 2: A 0.75 mg/mL stock solution of Compound I-263a was formulated weekly in 20% HPβCD and administered intravenously (IV) based on exact animal body weight on each day of treatment, using a dosing volume of 10 mL/kg body weight. Final doses received were 7.5 mg/kg. Dosing volume for Compound I-263a was 0.2 mL. […]
Tumors were measured twice weekly using vernier calipers. Tumor volumes were calculated using standard equation: V=W^2×L/2, where V=volume, W=width, and L=length for the tumor. […] Tumor size and body weight were measured twice a week for the duration of the study. […]

For `Cc1sc(C(=O)c2cncnc2N[C@@H]2C[C@H](COS(N)(=O)=O)[C@@H](O)C2)cc1[C@@H]1NCCc2ccc(Cl)cc21` [Compound I-263a, [(1R,2S,4R)-4-{[5-({4-[(1R)-7-chloro-1,2,3,4-tetrahydroisoquinolin-1-yl]-5-methyl-2-thienyl}carbonyl)pyrimidin-4-yl]amino}-2-hydroxycyclopentyl]methyl sulfamate], the “tumor growth inhibition relative to vehicle-treated tumors” value was “did not show any tumor growth inhibition”.

— patent US12419890B2, “Administration of sumo-activating enzyme inhibitor and checkpoint inhibitors” (Takeda Pharmaceutical Company Limited, priority 2019, dated 2025)
